# Source: US12344618B2, “Heterotricyclic derivative compound and use of same” (HANMI PHARMACEUTICAL CO., LTD., priority 2019, dated 2025)
# Target: EZH2 (Homo sapiens, UniProt Q15910)
# Assay: Inhibitory activity against EZH2 methyltransferase (radiometric scintillation proximity assay);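 further: Read-out is substrate peptide methylation, captured on streptavidin-coated SPA beads and counted by scintillation, with the reaction run in Tris-HCl buffer at pH 8.0 containing 1% DMSO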
# Settings: Enzyme inhibitory activity (IC50, nM) EZH2, 2.3 nmol/L enzyme, 90 minutes, room temperature
# Experimental: The inhibitory activities of the synthetic compounds against EZH1 or EZH2 methyltransferase were measured. The experiment was conducted by Reaction Biology Corp., and the activity of EZH1 or EZH2 was measured using a radiometric scintillation proximity assay. […] The reaction buffer consisted of 50 mmol/L Tris-HCl (pH 8.0), 50 mmol/L NaCl, 1 mmol/L EDTA, 1 mmoL/L DTT, 1 mmol/L PMSF, and 1% DMSO. Trichloroacetic acid was added to terminate the reaction, and PVT streptavidin-coated SPA beads were added to each reaction solution, followed by further reaction at room temperature for 1 hour again. The methylation value of the substrate peptide was measured using the TopCount NXT plate reader.
# EZH2, sequence (Q15910 whole entry): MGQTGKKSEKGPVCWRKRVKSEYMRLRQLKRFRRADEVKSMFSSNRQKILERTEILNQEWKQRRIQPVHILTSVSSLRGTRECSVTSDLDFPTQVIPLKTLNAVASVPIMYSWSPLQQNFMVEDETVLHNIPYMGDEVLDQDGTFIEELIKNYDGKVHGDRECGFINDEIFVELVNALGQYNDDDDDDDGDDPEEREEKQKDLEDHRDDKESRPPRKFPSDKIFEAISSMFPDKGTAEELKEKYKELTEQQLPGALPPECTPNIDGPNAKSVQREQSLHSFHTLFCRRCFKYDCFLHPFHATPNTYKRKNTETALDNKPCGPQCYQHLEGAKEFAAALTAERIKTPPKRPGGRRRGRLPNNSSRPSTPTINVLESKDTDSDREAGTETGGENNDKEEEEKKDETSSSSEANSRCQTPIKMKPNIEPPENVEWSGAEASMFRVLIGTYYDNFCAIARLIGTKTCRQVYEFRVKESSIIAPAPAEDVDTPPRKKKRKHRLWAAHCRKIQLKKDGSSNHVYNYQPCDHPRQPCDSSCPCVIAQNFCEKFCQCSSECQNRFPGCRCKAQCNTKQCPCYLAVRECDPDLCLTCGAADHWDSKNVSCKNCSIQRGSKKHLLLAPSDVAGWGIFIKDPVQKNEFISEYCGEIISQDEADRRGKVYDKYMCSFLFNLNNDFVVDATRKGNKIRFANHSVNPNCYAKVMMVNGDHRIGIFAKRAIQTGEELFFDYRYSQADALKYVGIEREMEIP
# EZH2, sequence (O75530 whole entry partner): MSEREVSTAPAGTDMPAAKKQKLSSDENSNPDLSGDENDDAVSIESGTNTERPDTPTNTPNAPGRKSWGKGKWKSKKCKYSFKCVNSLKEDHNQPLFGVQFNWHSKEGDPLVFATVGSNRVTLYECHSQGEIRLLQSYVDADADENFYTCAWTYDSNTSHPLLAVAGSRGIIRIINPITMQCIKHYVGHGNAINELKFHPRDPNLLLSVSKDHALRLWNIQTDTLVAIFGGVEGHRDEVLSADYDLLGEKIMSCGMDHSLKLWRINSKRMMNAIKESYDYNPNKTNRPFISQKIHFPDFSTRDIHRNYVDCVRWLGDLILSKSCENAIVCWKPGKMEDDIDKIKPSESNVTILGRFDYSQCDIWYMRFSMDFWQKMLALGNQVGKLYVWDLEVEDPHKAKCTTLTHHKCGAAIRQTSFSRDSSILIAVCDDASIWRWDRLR
# EZH2, sequence (Q15022 whole entry partner): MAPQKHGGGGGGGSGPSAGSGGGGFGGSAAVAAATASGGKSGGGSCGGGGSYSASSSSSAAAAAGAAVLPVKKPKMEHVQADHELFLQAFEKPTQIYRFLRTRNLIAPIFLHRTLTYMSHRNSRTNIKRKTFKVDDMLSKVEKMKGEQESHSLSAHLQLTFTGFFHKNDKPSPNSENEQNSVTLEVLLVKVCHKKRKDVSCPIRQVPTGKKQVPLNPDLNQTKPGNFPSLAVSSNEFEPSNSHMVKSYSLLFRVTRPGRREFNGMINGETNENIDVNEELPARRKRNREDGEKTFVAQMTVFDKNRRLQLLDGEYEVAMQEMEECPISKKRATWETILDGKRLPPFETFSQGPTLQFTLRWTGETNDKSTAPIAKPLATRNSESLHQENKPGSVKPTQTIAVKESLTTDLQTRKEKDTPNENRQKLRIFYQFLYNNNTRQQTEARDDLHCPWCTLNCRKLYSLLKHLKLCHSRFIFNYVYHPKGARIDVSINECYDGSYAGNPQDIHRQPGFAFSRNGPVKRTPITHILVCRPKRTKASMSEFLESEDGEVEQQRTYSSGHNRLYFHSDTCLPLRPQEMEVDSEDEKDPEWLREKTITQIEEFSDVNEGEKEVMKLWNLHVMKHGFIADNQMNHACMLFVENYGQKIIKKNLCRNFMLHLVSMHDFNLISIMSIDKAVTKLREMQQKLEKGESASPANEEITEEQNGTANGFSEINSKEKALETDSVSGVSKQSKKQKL
# EZH2, sequence (Q09028 whole entry partner): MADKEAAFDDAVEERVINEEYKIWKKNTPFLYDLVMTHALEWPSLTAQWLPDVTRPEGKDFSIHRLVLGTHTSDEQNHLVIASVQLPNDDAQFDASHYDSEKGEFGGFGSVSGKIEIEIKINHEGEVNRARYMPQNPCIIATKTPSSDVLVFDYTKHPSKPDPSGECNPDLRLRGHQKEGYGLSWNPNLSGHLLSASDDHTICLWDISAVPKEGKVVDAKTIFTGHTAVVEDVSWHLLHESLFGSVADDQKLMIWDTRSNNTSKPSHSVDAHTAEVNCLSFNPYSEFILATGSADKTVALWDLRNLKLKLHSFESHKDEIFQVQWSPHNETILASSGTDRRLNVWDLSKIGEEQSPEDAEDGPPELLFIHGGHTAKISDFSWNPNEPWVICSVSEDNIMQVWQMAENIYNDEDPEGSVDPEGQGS
# EZH2, sequence (Q6ZN18 whole entry partner): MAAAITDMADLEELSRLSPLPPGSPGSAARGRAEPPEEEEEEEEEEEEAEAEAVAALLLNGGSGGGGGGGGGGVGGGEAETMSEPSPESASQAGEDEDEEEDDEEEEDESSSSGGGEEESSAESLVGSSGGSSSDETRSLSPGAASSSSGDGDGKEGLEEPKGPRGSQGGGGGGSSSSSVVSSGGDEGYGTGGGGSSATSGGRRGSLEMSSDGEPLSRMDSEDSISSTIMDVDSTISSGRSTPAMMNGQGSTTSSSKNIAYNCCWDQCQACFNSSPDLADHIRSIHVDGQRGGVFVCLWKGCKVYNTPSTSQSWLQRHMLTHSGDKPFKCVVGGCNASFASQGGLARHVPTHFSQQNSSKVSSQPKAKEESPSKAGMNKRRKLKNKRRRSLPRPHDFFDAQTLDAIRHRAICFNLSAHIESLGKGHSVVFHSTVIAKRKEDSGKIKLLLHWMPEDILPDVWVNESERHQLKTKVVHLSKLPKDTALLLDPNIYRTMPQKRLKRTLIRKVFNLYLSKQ
row,IC50 [nM],SMILES
1,4.4,CC[C@H](O)C(=O)N[C@H]1CC[C@H](C2(C)Oc3c(C)c4c(c(Cl)c3O2)CCN(Cc2c(C)cc(C)[nH]c2=O)C4=O)CC1 (stereo partly drawn) [Compound 19]
2,3.2,"Cc1cc(C)c(CN2CCc3c(Cl)c4c(c(C)c3C2=O)OC(C)([C@H]2CC[C@H](N)CC2)O4)c(=O)[nH]1 (stereo partly drawn) [Compound 8, 2-(trans-4-aminocyclohexyl)-9-chloro-6-((4,6-dimethyl-2-oxo-1,2-dihydropyridin-3-yl)methyl)-2,4-dimethyl-7,8-dihydro-[1,3]dioxolo[4,5-g]isoquinolin-5(6H)-one]"

# System: KARPAS-422 (EZH2 Y641N mutation)
# Assay: Cell growth inhibition test, KARPAS-422
# Format: cell-based
# Settings: Homo sapiens, KARPAS-422, 168 h, KARPAS-422, culture time 7 days; read-out: Cell growth inhibitory activity (GI50, nM) KARPAS-422 (EZH2 Y641N mutation)
# Experimental: Each type of the cultured cells was seeded in 6-well plates or 48-96 well plates, and subculture or medium replacement was performed every 3 to 4 days. Next, the cells were subcultured for a total of 7 to 14 days, and then seeded in 96-well plates. 3 to 5 days before the measurement of the effect, the cells were seeded in 96-well plates, and then the absorbance (Tz) on the day of seeding was measured. The absorbance after the reaction was measured by the plate reader device Synergy NeoAlpha (Biotek) using Cell-Titer-Glo Cell Viability Assay (Promega, G7573) according to the attached manual. Based on the absorbance (Tz) measured on the seeding day and the absorbance of each of the DMSO-treated group (C) and the sample-added group (Ti) measured on the day of effect determination, the percentage of cell proliferation inhibition was calculated according to the following Equation 1. [(Ti−Tz)/(C−Tz)]×100 for concentrations for which Ti≥Tz […] for concentrations for which Ti<Tz. [Equation 1]
row,SMILES,GI50 [nM]
1,"Cc1cc(C)c(CN2CCc3c(c(C)c4c(c3-c3ccccc3)OC(C)([C@H]3CC[C@H](N(C)C)CC3)O4)C2=O)c(=O)[nH]1 (stereo partly drawn) [Compound 56, 6-((4,6-dimethyl-2-oxo-1,2-dihydropyridin-3-yl)methyl)-2-(trans-4-(dimethylamino)cyclohexyl)-2,4-dimethyl-9-phenyl-7,8-dihydro-[1,3]dioxolo[4,5-g]isoquinolin-5(6H)-one]",11
2,CC[C@H](O)C(=O)N[C@H]1CC[C@H](C2(C)Oc3c(C)c4c(c(Cl)c3O2)CCN(Cc2c(C)cc(C)[nH]c2=O)C4=O)CC1 (stereo partly drawn) [Compound 19],440
3,"Cc1cc(C)c(CN2CCc3c(c(C)c4c(c3-c3ccco3)OC(C)([C@H]3CC[C@H](N(C)C)CC3)O4)C2=O)c(=O)[nH]1 (stereo partly drawn) [Compound 64, 6-((4,6-dimethyl-2-oxo-1,2-dihydropyridin-3-yl)methyl)-2-(trans-4-(dimethylamino)cyclohexyl)-9-(furan-2-yl)-2,4-dimethyl-7,8-dihydro-[1,3]dioxolo[4,5-g]isoquinolin-5(6H)-one]",5
4,Cc1cc(C)c(CN2CCc3c(c(C)c4c(c3C3=CCOCC3)OC(C)([C@H]3CC[C@H](N(C)C)CC3)O4)C2=O)c(=O)[nH]1 (stereo partly drawn) [Compound 65],8.8
5,"Cc1cc(C)c(CN2CCc3c(c(C)c4c(c3C3=CCCCC3)OC(C)([C@H]3CC[C@H](N(C)C)CC3)O4)C2=O)c(=O)[nH]1 (stereo partly drawn) [Compound 59, 9-(cyclohex-1-en-1-yl)-6-((4,6-dimethyl-2-oxo-1,2-dihydropyridin-3-yl)methyl)-2-(trans-4-(dimethylamino)cyclohexyl)-2,4-dimethyl-7,8-dihydro-[1,3]dioxolo[4,5-g]isoquinolin-5(6H)-one]",28
6,"Cc1cc(C)c(CN2CCc3c(c(C)c4c(c3-c3cccnc3)OC(C)([C@H]3CC[C@H](N(C)C)CC3)O4)C2=O)c(=O)[nH]1 (stereo partly drawn) [Compound 66, 6-((4,6-dimethyl-2-oxo-1,2-dihydropyridin-3-yl)methyl)-2-(trans-4-(dimethylamino)cyclohexyl)-2,4-dimethyl-9-(pyridin-3-yl)-7,8-dihydro-[1,3]dioxolo[4,5-g]isoquinolin-5(6H)-one]",6.4
7,"Cc1cc(C)c(CN2CCc3c(c(C)c4c(c3C3CCCCC3)OC(C)([C@H]3CC[C@H](N(C)C)CC3)O4)C2=O)c(=O)[nH]1 (stereo partly drawn) [Compound 60, 9-cyclohexyl-6-((4,6-dimethyl-2-oxo-1,2-dihydropyridin-3-yl)methyl)-2-(trans-4-(dimethylamino)cyclohexyl)-2,4-dimethyl-7,8-dihydro-[1,3]dioxolo[4,5-g]isoquinolin-5(6H)-one]",28
8,"Cc1cc(C)c(CN2CCc3c(c(C)c4c(c3-c3cnn(C)c3)OC(C)([C@H]3CC[C@H](N(C)C)CC3)O4)C2=O)c(=O)[nH]1 (stereo partly drawn) [Compound 68, 6-((4,6-dimethyl-2-oxo-1,2-dihydropyridin-3-yl)methyl)-2-(trans-4-(dimethylamino)cyclohexyl)-2,4-dimethyl-9-(1-methyl-1H-pyrazol-4-yl)-7,8-dihydro-[1,3]dioxolo[4,5-g]isoquinolin-5 (6H)-one]",5.1
9,"Cc1cc(C)c(CN2CCc3c(Cl)c4c(c(C)c3C2=O)OC(C)(c2ccc3c(ccn3C)c2)O4)c(=O)[nH]1 (stereo not drawn) [Compound 32, 9-chloro-6-((4,6-dimethyl-2-oxo-1,2-dihydropyridin-3-yl)methyl)-2,4-dimethyl-2-(1-methyl-1H-indol-5-yl)-7,8-dihydro-[1,3]dioxolo[4,5-g]isoquinolin-5(6H)-one]",> 1000

# Further lines, results first:
row,GI50 [nM],SMILES
1,22,"Cc1cc(C)c(CN2CCc3c(Cl)c4c(c(C)c3C2=O)OC(C)([C@@H]2CC[C@H](N(C)C)C2)O4)c(=O)[nH]1 (relative stereo) [Compound 37, 9-chloro-6-((4,6-dimethyl-2-oxo-1,2-dihydropyridin-3-yl)methyl)-2-(cis-3-(dimethylamino)cyclopentyl)-2,4-dimethyl-7,8-dihydro-[1,3]dioxolo[4,5-g]isoquinolin-5(6H)-one]"
2,57,"Cc1cc(C)c(CN2CCc3c(Cl)c4c(c(C)c3C2=O)OC(C)([C@H]2C[C@H](N(C)C)C2)O4)c(=O)[nH]1 (stereo partly drawn) [Compound 35, 9-chloro-6-((4,6-dimethyl-2-oxo-1,2-dihydropyridin-3-yl)methyl)-2-(trans-3-(dimethylamino)cyclobutyl)-2,4-dimethyl-7,8-dihydro-[1,3]dioxolo[4,5-g]isoquinolin-5(6H)-one]"
3,39,"Cc1cc(C)c(CN2CCc3c(cc4c(c3C)OC(C)([C@H]3CC[C@H](N(C)C)CC3)O4)C2=O)c(=O)[nH]1 (stereo partly drawn) [Compound 3, 6-((4,6-dimethyl-2-oxo-1,2-dihydropyridin-3-yl)methyl)-2-(trans-4-(dimethylamino)cyclohexyl)-2,9-dimethyl-7,8-dihydro-[1,3]dioxolo[4,5-g]isoquinolin-5(6H)-one]"
4,13,"Cc1cc(C)c(CN2CCc3c(c(C)c4c(c3C3CCCC3)OC(C)([C@H]3CC[C@H](N(C)C)CC3)O4)C2=O)c(=O)[nH]1 (stereo partly drawn) [Compound 58, 9-cyclopentyl-6-((4,6-dimethyl-2-oxo-1,2-dihydropyridin-3-yl)methyl)-2-(trans-4-(dimethylamino)cyclohexyl)-2,4-dimethyl-7,8-dihydro-[1,3]dioxolo[4,5-g]isoquinolin-5(6H)-one]"
5,4.4,"CCc1c2c(c(C)c3c1OC(C)([C@H]1CC[C@H](N(C)C)CC1)O3)C(=O)N(Cc1c(C)cc(C)[nH]c1=O)CC2 (stereo partly drawn) [Compound 63, 6-((4,6-dimethyl-2-oxo-1,2-dihydropyridin-3-yl)methyl)-2-(trans-4-(dimethylamino)cyclohexyl)-9-ethyl-2,4-dimethyl-7,8-dihydro-[1,3]dioxolo[4,5-g]isoquinolin-5(6H)-one]"
6,13,"Cc1cc(C)c(CN2CCc3c(Cl)c4c(c(C)c3C2=O)OC(C)([C@H]2CC[C@H](N)CC2)O4)c(=O)[nH]1 (stereo partly drawn) [Compound 8, 2-(trans-4-aminocyclohexyl)-9-chloro-6-((4,6-dimethyl-2-oxo-1,2-dihydropyridin-3-yl)methyl)-2,4-dimethyl-7,8-dihydro-[1,3]dioxolo[4,5-g]isoquinolin-5(6H)-one]"
7,187,"CO[C@H]1CC[C@H](C2(C)Oc3c(C)c4c(c(Cl)c3O2)CCN(Cc2c(C)cc(C)[nH]c2=O)C4=O)CC1 (stereo partly drawn) [Compound 33, 9-chloro-6-((4,6-dimethyl-2-oxo-1,2-dihydropyridin-3-yl)methyl)-2-(trans-4-methoxycyclohexyl)-2,4-dimethyl-7,8-dihydro-[1,3]dioxolo[4,5-g]isoquinolin-5(6H)-one]"
8,4.3,"Cc1cc(C)c(CN2CCc3c(c(C)c4c(c3-c3cncs3)OC(C)([C@H]3CC[C@H](N(C)C)CC3)O4)C2=O)c(=O)[nH]1 (stereo partly drawn) [Compound 67, 6-((4,6-dimethyl-2-oxo-1,2-dihydropyridin-3-yl)methyl)-2-(trans-4-(dimethylamino)cyclohexyl)-2,4-dimethyl-9-(thiazol-5-yl)-7,8-dihydro-[1,3]dioxolo[4,5-g]isoquinolin-5(6H)-one]"
9,87,"Cc1cc(C)c(CN2CCc3c(Cl)c4c(c(C)c3C2=O)OC(C)([C@@H]2CCC[C@H](N(C)C)C2)O4)c(=O)[nH]1 (relative stereo) [Compound 36, 9-chloro-6-((4,6-dimethyl-2-oxo-1,2-dihydropyridin-3-yl)methyl)-2-(cis-3-(dimethylamino)cyclohexyl)-2,4-dimethyl-7,8-dihydro-[1,3]dioxolo[4,5-g]isoquinolin-5(6H)-one]"
10,6.2,"Cc1cc(C)c(CN2CCc3c(c(C)c4c(c3C(C)C)OC(C)([C@H]3CC[C@H](N(C)C)CC3)O4)C2=O)c(=O)[nH]1 (stereo partly drawn) [Compound 62, 6-((4,6-dimethyl-2-oxo-1,2-dihydropyridin-3-yl)methyl)-2-(trans-4-(dimethylamino)cyclohexyl)-9-isopropyl-2,4-dimethyl-7,8-dihydro-[1,3]dioxolo[4,5-g]isoquinolin-5(6H)-one]"
11,4.8,"C=C(C)c1c2c(c(C)c3c1OC(C)([C@H]1CC[C@H](N(C)C)CC1)O3)C(=O)N(Cc1c(C)cc(C)[nH]c1=O)CC2 (stereo partly drawn) [Compound 61, 6-((4,6-dimethyl-2-oxo-1,2-dihydropyridin-3-yl)methyl)-2-(trans-4-(dimethylamino)cyclohexyl)-2,4-dimethyl-9-(prop-1-en-2-yl)-7,8-dihydro-[1,3]dioxolo[4,5-g]isoquinolin-5(6H)-one]"
12,13,"Cc1cc(C)c(CN2CCc3c(c(C)c4c(c3C3=CCCC3)OC(C)([C@H]3CC[C@H](N(C)C)CC3)O4)C2=O)c(=O)[nH]1 (stereo partly drawn) [Compound 57, 9-(cyclopent-1-en-1-yl)-6-((4,6-dimethyl-2-oxo-1,2-dihydropyridin-3-yl)methyl)-2-(trans-4-(dimethylamino)cyclohexyl)-2,4-dimethyl-7,8-dihydro-[1,3]dioxolo[4,5-g]isoquinolin-5(6H)-one]"

# Same assay, conditions: KARPAS-422, culture time 7 days; read-out: Cell growth inhibitory activity (GI50, nM) KARPAS-422 (EZH2 Y641N mutation)
row,GI50 [nM],SMILES
1,310,"Cc1cc(C)c(CN2CCc3c(C)c4c(c(Cl)c3C2=O)OC(C)([C@H]2CC[C@H](N(C)C)CC2)O4)c(=O)[nH]1 (single isomer, unassigned) [Compound 6, 4-chloro-6-((4,6-dimethyl-2-oxo-1,2-dihydropyridin-3-yl)methyl)-2-(trans-4-(dimethylamino)cyclohexyl)-2,9-dimethyl-7,8-dihydro-[1,3]dioxolo[4,5-g]isoquinolin-5(6H)-one]"
